Entries after “also recorded” stand apart in the source; their conditions may differ. Counter-ions that a name gives are not always drawn. Like-named read-outs stand apart in the source and are kept apart here. Blank lines part the entries; values can stand above or below the molecule they belong to.
Assays:
[1] = target: T1, LTA4 hydrolase (Homo sapiens, UniProt P09960); conditions: literature; cited from earlier work
T1 sequence (P09960 1-611): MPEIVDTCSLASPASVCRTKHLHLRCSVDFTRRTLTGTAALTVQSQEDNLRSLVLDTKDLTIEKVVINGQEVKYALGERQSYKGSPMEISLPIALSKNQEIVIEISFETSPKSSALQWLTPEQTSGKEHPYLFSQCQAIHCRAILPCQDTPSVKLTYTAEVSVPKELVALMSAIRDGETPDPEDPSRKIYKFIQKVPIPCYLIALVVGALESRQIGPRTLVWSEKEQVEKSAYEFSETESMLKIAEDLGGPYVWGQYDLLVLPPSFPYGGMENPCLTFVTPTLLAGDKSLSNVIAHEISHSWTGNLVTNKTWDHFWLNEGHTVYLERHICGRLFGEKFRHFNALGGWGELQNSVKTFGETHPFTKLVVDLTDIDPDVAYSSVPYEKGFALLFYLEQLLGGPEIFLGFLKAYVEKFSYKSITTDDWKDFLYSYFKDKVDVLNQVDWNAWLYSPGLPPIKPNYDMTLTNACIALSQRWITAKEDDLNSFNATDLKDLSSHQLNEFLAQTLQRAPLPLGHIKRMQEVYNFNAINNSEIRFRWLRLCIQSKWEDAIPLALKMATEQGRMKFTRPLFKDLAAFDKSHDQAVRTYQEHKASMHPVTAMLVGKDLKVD

[2] = target: T2, LTA4 hydrolase (epoxide hydrolase activity) (Homo sapiens, UniProt P09960); test: Inhibition of epoxide hydrolase activity of LTA4 hydrolase, LTA4 as substrate; assay type: biochemical
T2 construct: obtained from human leukocytes and was purified to apparent homogeneity; from tissue; host or cells: human leukocytes (purified to apparent homogeneity)
T2 sequence (P09960 1-611): T1 sequence (P09960 1-611)

[3] = target: T1, LTA4 hydrolase; test: Inhibition of LTA4 hydrolase, amidase (aminopeptidase) activity, L-alanyl p-nitroanilide as substrate; assay type: biochemical; design: LTA4 hydrolase purified from human leukocytes; from tissue; host or cells: human leukocytes (purified enzyme); conditions: for Ki: Dixon plot
[4] = test system: Leukotriene B4 (LTB4); test: Inhibition of leukotriene B4 (LTB4) in calcium ionophore A-23187-stimulated human blood; assay type: cell-based; conditions: Homo sapiens
[5] = test system: Thromboxane B2 (TXB2); test: Inhibition of thromboxane B2 (TXB2) in calcium ionophore A-23187-stimulated human blood; assay type: cell-based
[6] = target: cytosolic leucine aminopeptidase; test: Inhibition of cytosolic leucine aminopeptidase; assay type: biochemical
[7] = target: T1, LTA4 hydrolase; test: Kinetic parameters of LTA4 hydrolase-catalyzed hydrolysis of LTA4 and amide substrates; assay type: biochemical
Procedure: Several amino acid amides were assayed as substrates for LTA4 hydrolase. Yuan et al., Bioorg. & Med. Chem. Lett., 1:551 (1991).
^a Determined in 50 mM TrisCl, pH 7.6, in the presence of 0.1 M NaCl, […]

[8] = target: T1, LTA4 hydrolase; conditions: LTA4 as substrate, Radmark et al., cited from earlier work
[9] = L-alanyl p-nitroanilide 1.5 mM, pH 8.0
[10] = Table 3, read-out: % Inhibition LTB4
[11] = Table 4, read-out: % Inhibition LTB4
[12] = Table 3, 1 μM, read-out: % Inhibition TXB2
[13] = Table 3, 3 μM, read-out: % Inhibition TXB2
[14] = Table 3, 10 μM, read-out: % Inhibition TXB2
[15] = Table 4, 10 μM, read-out: % Inhibition TXB2
[16] = L-alanyl p-nitroanilide 1.5 mM, pH 8.0, thiols with 5 mM DTT
[17] = Table 5, read-out: IC50 Epoxide Hydrolase
[18] = read-out: % Inhibition LTB4, Table 3
[19] = Table 1, 50 mM TrisCl, pH 7.6, 0.1 M NaCl

- inhibition of LTA4 hydrolase (in words) [3]: poor or no inhibition
SMILES: COC(=O)[C@H](O)[C@@H](N)Cc1ccccc1 [Compound 1, (2R, 3S)-AHPA methyl ester]

- Ki [3, 9]: 50 µM
SMILES: COC(=O)[C@@H](O)[C@@H](N)Cc1ccccc1 [Compound 2, (2S, 3S)-AHPA methyl ester]

- inhibition of LTA4 hydrolase (in words) [3]: poor or no inhibition
SMILES: COC(=O)[C@H](O)[C@H](N)Cc1ccccc1 [Compound 4, (2R, 3R)-AHPA methyl ester]

- inhibition of LTA4 hydrolase (in words) [3]: loss of their inhibition potency
SMILES: N[C@@H](Cc1ccccc1)[C@H](O)C(=O)O [Compound 5, (2S,3S)-AHPA]

- inhibition of LTA4 hydrolase (in words) [3]: loss of their inhibition potency
SMILES: N[C@H](Cc1ccccc1)[C@H](O)C(=O)O [Compound 6, (2S,3R)-AHPA]

- Ki [3, 9]: 15 µM
- IC50 [3, 16]: 15 µM
SMILES: N[C@@H](Cc1ccccc1)[C@H](O)C(=O)NCC(=O)O [Compound 8, (2S, 3S) -AHPA-Gly]

- IC50 [3, 16]: 100 µM
SMILES: N[C@H](Cc1ccccc1)[C@H](O)C(=O)NCCC(=O)O [Compound 9]

- IC50 [3, 16]: 80 µM
SMILES: N[C@@H](Cc1ccccc1)[C@H](O)C(=O)NCCC(=O)O [Compound 10, (2S, 3S) -AHPA-β-Ala]
- inhibition at 1 µM [4, 10]: 14%
- inhibition at 3 µM [4, 10]: 39%
- inhibition at 10 µM [4, 10]: 15%
- inhibition at 1 µM [5, 12]: 12%
- inhibition at 3 µM [5, 13]: 21%
- inhibition at 10 µM [5, 14]: 19%

- inhibition of LTA4 hydrolase (in words) [3]: a much weaker inhibitor than Compound 8
SMILES: NC(Cc1ccccc1)P(=O)(O)NCC(=O)O (stereo not drawn) [Compound 16]

- inhibition of LTA4 hydrolase (in words) [3]: bound more tightly than the amide
- IC50 [3, 16]: 0.8 µM
- IC50 [2, 17]: 100 µM
SMILES: N[C@@H](Cc1ccccc1)[C@H](O)C(=O)OCc1ccccc1 [Compound 20]

- inhibition of LTA4 hydrolase (in words) [3]: comparable with Compound 2
- IC50 [3, 16]: 80 µM
SMILES: COC(=O)C(=O)[C@@H](N)Cc1ccccc1 [Compound 21]
- inhibition at 10 µM [4, 11]: 8%
- inhibition at 10 µM [5, 15]: 0%

- IC50 [3, 16]: 0.5 µM
SMILES: CC(C)C[C@H](NC(=O)C(=O)[C@@H](N)Cc1ccccc1)C(=O)O [Compound 22]
- inhibition of LTA4 hydrolase (in words) [3]: better than the corresponding α-(S)--OH derivative Compound 7

- IC50 [3, 16]: 20 µM
SMILES: COC(=O)[C@@H](O)[C@@H](N)Cc1ccc(OCc2ccccc2)cc1 [Compound 23]

- Ki [3, 9]: 14 µM
- IC50 [2, 17]: > 100 µM
SMILES: N[C@@H](Cc1ccccc1)C(=O)Cc1ccccc1 [Compound 30]
- inhibition at 10 µM [4, 11]: 15%
- inhibition at 10 µM [5, 15]: 6%

- IC50 [3, 16]: 140 µM
SMILES: N[C@@H](Cc1ccccc1)[C@H](O)Cc1ccccc1 [Compound 44, (2R, 3S)-1,4-Diphenyl-2-hydroxy-3-amino-butane HCl]

- IC50 [3, 16]: 20 µM
SMILES: N[C@@H](Cc1ccccc1)C(=O)CCCC(=O)O [Compound 45, (6S) -5-Oxo-6-amino-7-phenyl-heptanoic acid HCl]
- inhibition at 10 µM [4, 11]: 11%
- inhibition at 10 µM [5, 15]: 12%

- inhibition of LTA4 hydrolase (in words) [3]: no inhibition activity
SMILES: COC(=O)[C@@H](O)[C@H](Cc1ccccc1)NC(=O)OC(C)(C)C [N-Boc-2S, 3S)-AHPA methyl ester, N-Boc-(2S, 3S) -AHPA methyl ester]

More lines, now with the values behind:

SMILES: CC(C)C[C@H](NC(=O)[C@@H](O)[C@H](N)Cc1ccccc1)C(=O)O [Bestatin]
- inhibition of LTA4 hydrolase, type of inhibition (in words) [1]: reversible inhibitors

SMILES: C[C@H](CS)C(=O)N1CCC[C@H]1C(=O)O [Captopril, reference compound]
- inhibition of LTA4 hydrolase, type of inhibition (in words) [1]: reversible inhibitors
- IC50 [2]: 240 µM

SMILES: COC(=O)[C@@H](O)[C@H](N)Cc1ccccc1 [Compound 3, (2S, 3R)-AHPA methyl ester]
- inhibition of LTA4 hydrolase (in words) [3]: poor or no inhibition; also recorded: exhibited no activity

SMILES: CC(C)C[C@H](NC(=O)[C@@H](O)[C@@H](N)Cc1ccccc1)C(=O)O [Compound 7, (2S, 3S)-AHPA-L-Leu]
- inhibition at 3 µM [4, 10]: 10%
- inhibition at 10 µM [4, 10]: 37%
- inhibition at 10 µM [4, 11]: 25%
- inhibition at 1 µM [5, 12]: 21%
- inhibition at 3 µM [5, 13]: 15%
- inhibition at 10 µM [5, 14]: 24%
- inhibition at 10 µM [5, 15]: 0%

SMILES: COC(=O)C(S)[C@@H](N)Cc1ccccc1 (stereo partly drawn) [Compound 11]
- inhibition of LTA4 hydrolase (in words) [3]: poor inhibitors

SMILES: COC(=O)C(S)[C@H](N)Cc1ccccc1 (stereo partly drawn) [Compound 12]
- inhibition of LTA4 hydrolase (in words) [3]: poor inhibitors

SMILES: CCOC(=O)CC(F)(F)C(=O)/C=C/c1ccccc1 [Compound 17]
- inhibition of the enzyme at 1 mM concentration (in words) [3]: did not inhibit the enzyme

SMILES: CCOC(=O)C(F)(F)C(=O)c1nc[nH]c1C [Compound 18]
- inhibition of the enzyme at 1 mM concentration (in words) [3]: did not inhibit the enzyme
- IC50 ([3]; footnote d: less than 10 percent inhibition was observed at this concentration): > 1000 µM

SMILES: N[C@@H](Cc1ccc(OCc2ccccc2)cc1)C(=O)C(=O)OCc1ccccc1 [Compound 26]
- inhibition at 1 µM [4, 18]: 15%
- inhibition at 3 µM [4, 18]: 17%
- inhibition at 10 µM [4, 18]: 24%
- inhibition at 1 µM ([5]; read-out: % Inhibition TXB2, Table 3, 1 μM): 8%
- inhibition at 3 µM ([5]; read-out: % Inhibition TXB2, Table 3, 3 μM): 7%
- inhibition at 10 µM ([5]; read-out: % Inhibition TXB2, Table 3, 10 μM): 28%
- IC50 [6]: > 100 µM

SMILES: NC(CSSCC(N)Cc1ccc(OCc2ccccc2)cc1)Cc1ccc(OCc2ccccc2)cc1 [Compound 27a, Di-((2S)-3-[4-(benzyloxy)phenyl]-2-amino-propane)-disulphide HCl]
- inhibition at 10 µM [4, 11]: 100%
- IC50 ([4]; concentrations of about 0.3-10 μM, readout not restated, read-out: IC50 in this assay (human blood)): ~0.81 µM
- inhibition at 10 µM [5, 15]: 24%

SMILES: N[C@@H](Cc1ccc(OCc2ccccc2)cc1)C(=O)c1cccc(C(=O)O)c1 [Compound 28]
- inhibition at 10 µM [4, 11]: 16%
- IC50 [3, 16]: 3 µM
- inhibition at 10 µM [5, 15]: 0%

SMILES: N[C@@H](Cc1ccc(OCc2ccccc2)cc1)C(=O)c1ccc(C(F)(F)F)cc1 [Compound 29]
- IC50 [3, 16]: 10 µM
- IC50 [2, 17]: > 100 µM
- inhibition at 10 µM [5, 15]: 0%

SMILES: N[C@@H](Cc1ccc(OCc2ccccc2)cc1)C(=O)CCCc1ccccc1 [Compound 54, (2S)-1-[4-(Benzyloxy)phenyl]-6-phenyl-2-amino-3-oxo-hexane HCl]
- IC50 [3, 9]: 0.03 µM

SMILES: NC[C@@H](N)Cc1ccc(OCc2ccc3ccccc3c2)cc1 [Compound 60, (2S) -3-[4-(2-Naphthylmethyloxy)phenyl]-1,2-diamino-propane HCl]
- IC50 [3, 16]: 0.55 µM

SMILES: C[C@@H](N)C(=O)Nc1ccc([N+](=O)[O-])cc1 [D-Ala p-nitroanilide, D-Alanine p-nitroanilide]
- acceptance as substrate for LTA4 hydrolase (in words) [7]: not acceptable
- Vmax [7, 19]: 0 nmol/min/mg

SMILES: C[C@H](N)C(=O)Nc1ccc([N+](=O)[O-])cc1 [L-Ala p-nitroanilide, L-alanine p-nitroanilide]
- acceptance as substrate for LTA4 hydrolase (in words) [7]: the best

SMILES: CCCCCCCC\C=C/C=C/C=C/[C@@H]1O[C@H]1CCCC(=O)O [LTA3]
- inhibition of LTA4 hydrolase, type of inhibition (in words) [1]: irreversibly inhibited

SMILES: CCCCC/C=C\C\C=C/C=C/C=C/[C@@H]1O[C@H]1CCCC(=O)O [LTA4, 5(S)-5,6-oxido-7,9-trans-11,14-cis-eicosatetraenoic acid]
- inhibition of LTA4 hydrolase, type of inhibition (in words) [1]: irreversibly inhibited
- kcat /Km [7, 19]: 9.0 × 10^4 M^- x^-1
- Vmax reported for native LTA4 hydrolase [8]: 1.7 to 3.0 µmol/min/mg
- Km ([8]; native LTA4 hydrolase, read-out: Km reported for native LTA4 hydrolase): 7 to 30 µM

SMILES: CC/C=C\C/C=C\C\C=C/C=C/C=C/[C@@H]1O[C@H]1CCCC(=O)O [LTA5]
- inhibition of LTA4 hydrolase, type of inhibition (in words) [1]: irreversibly inhibited

— patent US5455271A, “Tight-binding inhibitors of leukotriene A4 hydrolase” (The Scripps Research Institute, priority 1993, dated 1995)
